In ChEMBL document CHEMBL1152152, “Quantitative structure-activity relationship of phenoxyphenyl-methanamine compounds with 5HT2A, SERT, and hERG activities” (Bioorg Med Chem Lett, 2008):

Experiments:
[1] = target: Sodium-dependent serotonin transporter (Homo sapiens, UniProt P31645); assay: Inhibition of serotonin reuptake at SERT
[2] = target: 5-hydroxytryptamine receptor 2A (Homo sapiens, UniProt P28223); assay: Displacement of [3H]ketanserin from 5HT2A receptor
[3] = target: Voltage-gated inwardly rectifying potassium channel KCNH2 (Homo sapiens, UniProt Q12809); assay: Displacement of [3H]dofetilide from human ERG channel
Voltage-gated inwardly rectifying potassium channel KCNH2, sequence (Q12809 whole entry): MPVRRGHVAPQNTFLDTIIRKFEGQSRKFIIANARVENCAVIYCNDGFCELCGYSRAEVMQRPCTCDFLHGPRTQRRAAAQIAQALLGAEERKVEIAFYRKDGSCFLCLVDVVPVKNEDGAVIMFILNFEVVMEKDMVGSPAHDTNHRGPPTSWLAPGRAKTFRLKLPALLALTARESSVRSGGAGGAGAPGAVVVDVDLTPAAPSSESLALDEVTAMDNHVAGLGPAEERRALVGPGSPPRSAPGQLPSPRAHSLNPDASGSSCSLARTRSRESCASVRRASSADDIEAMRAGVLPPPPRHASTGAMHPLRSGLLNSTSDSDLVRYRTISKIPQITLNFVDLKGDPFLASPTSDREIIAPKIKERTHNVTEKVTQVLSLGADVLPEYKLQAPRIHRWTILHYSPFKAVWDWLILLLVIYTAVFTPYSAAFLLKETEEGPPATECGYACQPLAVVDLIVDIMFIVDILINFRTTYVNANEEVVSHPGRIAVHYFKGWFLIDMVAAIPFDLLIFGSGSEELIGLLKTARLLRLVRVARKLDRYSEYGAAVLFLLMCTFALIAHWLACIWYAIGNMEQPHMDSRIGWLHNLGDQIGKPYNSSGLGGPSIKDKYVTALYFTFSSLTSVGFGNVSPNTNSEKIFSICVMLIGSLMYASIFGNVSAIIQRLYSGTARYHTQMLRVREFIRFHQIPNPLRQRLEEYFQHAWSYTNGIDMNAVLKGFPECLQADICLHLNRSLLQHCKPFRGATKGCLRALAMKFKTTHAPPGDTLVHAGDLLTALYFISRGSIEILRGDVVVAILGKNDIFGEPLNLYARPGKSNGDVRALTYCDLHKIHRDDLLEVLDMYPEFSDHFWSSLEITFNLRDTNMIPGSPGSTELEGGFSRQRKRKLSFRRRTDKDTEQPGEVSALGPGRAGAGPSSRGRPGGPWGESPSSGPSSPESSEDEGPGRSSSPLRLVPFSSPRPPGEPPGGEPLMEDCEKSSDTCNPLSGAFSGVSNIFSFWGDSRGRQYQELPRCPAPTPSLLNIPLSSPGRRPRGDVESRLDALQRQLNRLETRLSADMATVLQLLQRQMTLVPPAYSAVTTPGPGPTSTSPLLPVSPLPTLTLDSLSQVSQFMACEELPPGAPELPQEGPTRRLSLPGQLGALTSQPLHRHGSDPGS

Sodium-dependent serotonin transporter, sequence (P31645 whole entry): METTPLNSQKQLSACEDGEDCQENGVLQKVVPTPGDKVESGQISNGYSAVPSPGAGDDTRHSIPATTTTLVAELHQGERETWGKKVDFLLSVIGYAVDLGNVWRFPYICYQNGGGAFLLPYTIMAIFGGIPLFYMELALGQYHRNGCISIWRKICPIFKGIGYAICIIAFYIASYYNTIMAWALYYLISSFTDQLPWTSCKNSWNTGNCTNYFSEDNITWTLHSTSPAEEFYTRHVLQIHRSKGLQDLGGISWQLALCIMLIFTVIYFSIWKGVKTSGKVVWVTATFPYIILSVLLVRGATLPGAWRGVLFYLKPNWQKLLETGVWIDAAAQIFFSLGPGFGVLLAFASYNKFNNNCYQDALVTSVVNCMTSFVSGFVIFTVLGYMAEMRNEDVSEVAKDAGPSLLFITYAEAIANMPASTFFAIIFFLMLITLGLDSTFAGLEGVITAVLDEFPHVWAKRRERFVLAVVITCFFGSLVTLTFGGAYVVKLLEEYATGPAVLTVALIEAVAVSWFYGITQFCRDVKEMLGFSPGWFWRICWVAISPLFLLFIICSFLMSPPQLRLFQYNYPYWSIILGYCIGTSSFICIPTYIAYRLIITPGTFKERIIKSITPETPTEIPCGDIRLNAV
5-hydroxytryptamine receptor 2A, sequence (P28223 whole entry): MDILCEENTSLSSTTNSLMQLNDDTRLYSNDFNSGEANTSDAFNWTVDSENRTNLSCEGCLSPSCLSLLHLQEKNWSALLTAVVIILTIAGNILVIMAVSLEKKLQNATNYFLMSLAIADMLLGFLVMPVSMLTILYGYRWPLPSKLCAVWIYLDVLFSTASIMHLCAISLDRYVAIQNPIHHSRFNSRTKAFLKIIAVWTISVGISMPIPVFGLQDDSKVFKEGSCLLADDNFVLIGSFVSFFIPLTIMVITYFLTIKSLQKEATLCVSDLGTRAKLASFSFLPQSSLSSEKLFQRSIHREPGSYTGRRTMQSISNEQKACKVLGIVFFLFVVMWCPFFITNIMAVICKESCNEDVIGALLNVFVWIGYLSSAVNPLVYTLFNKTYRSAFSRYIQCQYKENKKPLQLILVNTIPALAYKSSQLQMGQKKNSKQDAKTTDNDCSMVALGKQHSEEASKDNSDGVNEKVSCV

Row | Compound | IC50 [1] | IC50 [2] | IC50 [3]
1 | CN(C)Cc1ccccc1Oc1ccc(Cl)c(Cl)c1 | 0.35 nM | 144 nM | 
2 | CNCc1ccc(Cl)cc1Oc1ccc(Cl)c(F)c1 | 88 nM | 58.1 nM | 1230 nM
3 | CN(C)Cc1ccccc1Oc1ccc(F)c(F)c1 | 34.4 nM | 1000 nM | 
4 | CNCc1ccc(Cl)cc1Oc1cccc(Cl)c1 | 77.5 nM | 48.6 nM | 2110 nM
5 | CCc1cc(Oc2cc(Cl)ccc2CNC)ccc1Cl | 20.7 nM | 47.1 nM | 1150 nM
6 | CNCc1cc(C#N)ccc1Oc1ccc(Cl)c(Cl)c1 | 2.5 nM | 3180 nM | 4560 nM
7 | CNCc1ccc(Br)cc1Oc1ccc(Cl)c(Cl)c1 | 5.1 nM | 66.8 nM | 
8 | CN(C)Cc1cc(CC(N)=O)ccc1Oc1ccc(Cl)c(Cl)c1 | 2.43 nM | 2240 nM | 
9 | CNCc1ccc(Cl)cc1Oc1ccc(C)c(Cl)c1 | 4.19 nM | 9.11 nM | 
10 | CNCc1ccc(Cl)cc1Oc1ccc(Cl)c(C)c1 | 4.27 nM | 9.04 nM | 
11 | CNC(C)c1cc(C(F)(F)F)ccc1Oc1ccc(Cl)c(Cl)c1 (configuration not stated) | 61.2 nM | 291 nM | 3030 nM
12 | CNC(C)c1cc(C)ccc1Oc1ccc(Cl)c(Cl)c1 (configuration not stated) | 39.6 nM | 172 nM | 
13 | CNCc1ccc(Cl)cc1Oc1ccc(F)c(Cl)c1 | 25.4 nM | 60.9 nM | 
14 | CNCc1ccc(Cl)cc1Oc1ccc(F)c(C(F)(F)F)c1 | 9.71 nM | 48.9 nM | 873 nM
15 | CNCc1cc(F)c(OC)cc1Oc1ccc(Cl)c(Cl)c1 | 4.51 nM | 74.6 nM | 
16 | CNCc1ccc(Cl)cc1Oc1ccc(F)c(C)c1 | 31.2 nM | 32.9 nM | 
17 | COc1ccc(CN(C)C)c(Oc2ccc(Cl)c(Cl)c2)c1 | 3.61 nM | 36.8 nM | 
18 | CNCc1cc(S(=O)(=O)NC)ccc1Oc1ccc(Cl)c(Cl)c1 | 9.35 nM | 5570 nM | 4800 nM
19 | CNCc1cc(C)c(C)cc1Oc1ccc(Cl)c(Cl)c1 | 8.9 nM | 79.4 nM | 1480 nM
20 | CNCc1cc(C(N)=O)ccc1Oc1ccc(Cl)c(Cl)c1 | 3.78 nM | 1550 nM | 5440 nM

Row | Compound | IC50 [1] | IC50 [2] | IC50 [3]
21 | Cc1ccc(Oc2ccc(Cl)c(Cl)c2)c(CN(C)C)c1 | 2.36 nM | 376 nM | 3390 nM
22 | CNCc1cc(F)c(Cl)cc1Oc1ccc(Cl)c(Cl)c1 | 4.37 nM | 230 nM | 
23 | CNC(C)c1ccc(Cl)cc1Oc1ccc(C)cc1 (configuration not stated) | 187 nM | 3.54 nM | 3690 nM
24 | CNCc1ccc(Cl)cc1Oc1ccc(C)c(C)c1 | 4.67 nM | 3.42 nM | 
25 | CC(c1ccccc1Oc1ccc(Cl)c(Cl)c1)N(C)C (configuration not stated) | 3.27 nM | 87.8 nM | 
26 | CNCc1cc(OC)c(OC)cc1Oc1ccc(Cl)c(Cl)c1 | 14.1 nM | 249 nM | 
27 | CNC(C)c1ccccc1Oc1ccc(Cl)c(Cl)c1 (configuration not stated) | 23 nM | 379 nM | 
28 | CNC(C)c1ccccc1Oc1ccc(Cl)cc1 (configuration not stated) | 56.8 nM | 179 nM | 
29 | CN(C)Cc1ccc(C(F)(F)F)cc1Oc1ccc(Cl)c(Cl)c1 | 17.1 nM | 41.5 nM | 
30 | CNCc1ccc(C(F)(F)F)cc1Oc1ccc(Cl)c(Cl)c1 | 29.6 nM | 362 nM | 
31 | CNCc1ccc(Cl)cc1Oc1ccc(Cl)c(Cl)c1 | 6.22 nM | 89.5 nM | 
32 | CNCc1cc(Br)ccc1Oc1ccc(Cl)c(Cl)c1 | 4.8 nM | 787 nM | 
33 | CNC(C)c1cc(F)ccc1Oc1ccc(Cl)c(Cl)c1 (configuration not stated) | 8.09 nM | 301 nM | 
34 | CN(C)Cc1cc(N)ccc1Oc1ccc(Cl)c(Cl)c1 | 4.99 nM | 724 nM | 
35 | CNCc1ccc(OC)cc1Oc1ccc(Cl)c(Cl)c1 | 8.72 nM | 105 nM | 
36 | CNCc1cc(C(F)(F)F)ccc1Oc1ccc(Cl)c(Cl)c1 | 21.8 nM | 1800 nM | 
37 | CNCc1ccc(C#N)cc1Oc1ccc(Cl)c(Cl)c1 |  | 315 nM | 1310 nM
38 | CNC(C)c1ccc(Cl)cc1Oc1ccc(C)c(C)c1 (configuration not stated) | 115 nM | 6.82 nM | 
39 | CNC(C)c1ccc(OC)cc1Oc1ccc(Cl)c(Cl)c1 (configuration not stated) | 41.2 nM | 88 nM | 

Continued, in another order:

Row | IC50 [1] | IC50 [2] | Compound | IC50 [3]
40 | 1.68 nM | 1980 nM | CN(C)Cc1ccccc1Oc1ccc(Cl)cc1 | 
41 | 37.5 nM | 575 nM | CNCc1cc(F)ccc1Oc1ccc(F)c(Cl)c1 | 
42 | 34.8 nM | 206 nM | CNC(C)c1cc(F)ccc1Oc1ccc(Cl)cc1 (configuration not stated) | 
43 | 17 nM | 1.18 nM | CNCc1ccc(Cl)cc1Oc1ccc(C)cc1 | 
44 | 19.3 nM | 2010 nM | CNCc1cc(F)ccc1Oc1ccc(Cl)c(F)c1 | 
45 | 1 nM | 458 nM | CSc1ccc(Oc2ccccc2CN(C)C)cc1 | 3020 nM
46 | 3.46 nM | 74.2 nM | Cc1ccc(Oc2ccccc2CN(C)C)cc1 | 
47 | 28.9 nM | 378 nM | CNCc1cc(F)ccc1Oc1ccc(-c2ccccc2)cc1 | 
48 | 9.81 nM | 51 nM | CNCc1cc(Cl)ccc1Oc1ccc(C)c(C)c1 | 
49 | 7.49 nM | 90.2 nM | CNCc1cc(Cl)ccc1Oc1ccc(Cl)cc1 | 
50 | 9.2 nM | 6.59 nM | CNCc1ccc(Cl)cc1Oc1ccc(Cl)cc1 | 
51 | 74.7 nM | 34.7 nM | CNCc1cc(C(F)(F)F)ccc1Oc1ccc(C)cc1 | 10400 nM
52 | 381 nM | 670 nM | CNCc1cc(F)ccc1Oc1ccccc1 | 
53 | 36 nM | 651 nM | CNCc1ccc(F)cc1Oc1ccc(Cl)c(Cl)c1 | 
54 | 7.55 nM | 52.4 nM | CNCc1cc(F)ccc1Oc1ccc(C)c(C)c1 | 
55 | 3.28 nM | 206 nM | CNCc1cc(F)ccc1Oc1ccc(Cl)c(Cl)c1 | 
56 | 12.8 nM | 66.4 nM | CNCc1ccccc1Oc1ccc(C)c(C)c1 | 
57 | 13.9 nM | 1050 nM | CNCc1ccccc1Oc1ccc(Cl)cc1 | 
58 | 9.47 nM | 495 nM | CNCc1cc(F)ccc1Oc1ccc(Cl)cc1 | 
59 | 4.02 nM | 721 nM | CNCc1ccccc1Oc1ccc(Cl)c(Cl)c1 | 
60 | 5.73 nM | 429 nM | CNCc1cc(Cl)ccc1Oc1ccc(Cl)c(Cl)c1 | 
61 | 31.1 nM | 324 nM | CNCc1ccc(C(F)(F)F)cc1Oc1ccc(Cl)cc1 | 5110 nM
62 | 5.53 nM | 274 nM | CCc1cc(Oc2ccc(F)cc2CNC)ccc1Cl | 
63 | 94.1 nM | 55.1 nM | CNC(C)c1ccccc1Oc1ccc(C)cc1 (configuration not stated) | 
64 | 3.77 nM | 1450 nM | CNCc1cc(OC)ccc1Oc1ccc(Cl)c(Cl)c1 | 
